We go through four molecules from US11117947B2, “Double-acylated GLP-1 derivatives” (Novo Nordisk A/S, priority 2011, dated 2021).

Numbered stars: 1 amine (or outer) side, 2 acyl side, 3 side chain; on linkers, the order of the positions; unused ones are H or OH. Square brackets hold non-standard residues; d marks the D form. Side chains are listed from the residue outwards. Peptide text beside a SMILES is read from it. * marks the point of attachment. Decanoyl(10-(4-HOOC-PhO)) = O=C(O)c1ccc(OCCCCCCCCCC(=O)*)cc1; γGlu = O=C(O)[C@H](CCC(=O)[*:2])N[*:1]; C14 diacid = O=C(O)CCCCCCCCCCCCC(=O)*; AEEA = NCCOCCOCC(=O)O; Aib = CC(C)(N)C(=O)O

The nature of series [1]: Pharmacokinetics in rat: half-life after i.v. administration. The format is in vivo. To be noted: plasma, iv, 6 nmol/kg, male Sprague Dawley rats, approximately 4 rats per group, read-out: t½/h (half-life in rat) (converted). How it is done:
In vivo pharmacokinetic studies in rats were performed with the GLP-1 derivatives of Examples 2, 10, 17-18, and 31, as described in the following. Semaglutide was included for comparison.
Male Sprague Dawley rats of same age with a body weight of approximately 400 g were obtained from Taconic (Denmark) and assigned to the treatments by simple randomisation on body weight, approximately 4 rats per group, so that all animals in each group were of similar body weight.
The GLP-1 derivatives (approximately 6 nmol/ml) were dissolved in 50 mM sodium phosphate, 145 mM sodium chloride, 0.05% tween 80, pH 7.4. Intravenous injections (1.0 ml/kg) of the compounds were given through a catheter implanted in the right jugular vein. Blood was sampled from vena sublingualis for 5 days post dosing. Blood samples (200 μl) were collected in EDTA buffer (8 mM) and then centrifuged at 4° C. and 10000 G for 5 minutes. Plasma samples were kept at −20° C. until analyzed for plasma concentration of the respective GLP-1 compound.
The plasma concentrations of the GLP-1 compounds were determined using a Luminescence Oxygen Channeling Immunoasssay (LOCI), generally as described for the determination of insulin by Poulsen and Jensen in Journal of Biomolecular Screening 2007, vol. 12, p. 240-247. The donor beads were coated with streptavidin, while acceptor beads were conjugated with a monoclonal antibody recognising a mid-/C-terminal epitope of the peptide. Another monoclonal antibody, specific for the N-terminus, was biotinylated. The three reactants were combined with the analyte and formed a two-sited immuno-complex. Illumination of the complex released singlet oxygen atoms from the donor beads, which were channeled into the acceptor beads and triggered chemiluminescence which was measured in an Envision plate reader. The amount of light was proportional to the concentration of the compound.
Plasma concentration-time profiles were analyzed using Phoenix WinNonLin ver. 6.2, Pharsight Inc., Mountain View, Calif., USA), and the half-life (T1/2) calculated using individual plasma concentration-time profiles from each animal.

A further series concerns the target T1, human GLP-1 receptor (Homo sapiens, UniProt P43220).
T1 construct: expressed in transfected cells; membranes
As to the kind of experiment: GLP-1 receptor binding: displacement of 125I-GLP-1 (SPA) at low and high albumin. To be noted: 2.0% HSA vs 0.001% HSA. Summed up:
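Membranes from hamster cells stably transfected with the receptor, with WGA SPA beads and 0.06 nM [^125I]-GLP-1(7-36)NH2, incubated 120 min at 30 °C with shaking.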
Background: Displacement assays read how much labelled ligand stays bound in the presence of the test substance.

Series [2] in a line: Estimate of oral bioavailability: gut injection in rat (caprate), exposure in plasma. The format is in vivo. To be noted: injection in jejunum, 1000 uM in 55 mg/ml sodium caprate, plasma concentration (pM) at 30 min divided by dosing solution concentration (μM), mean n=4. Summed up: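 Male Sprague Dawley rats (~240 g, n=4) received 100 μl of 1000 uM derivative in 55 mg/ml sodium caprate by catheter into proximal or mid jejunum. Tail-vein EDTA plasma was sampled up to 240 min. Peptide was quantified by two-antibody bead chemiluminescence immunoassay, giving mean concentration-time profiles (pmol/l).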

T1 sequence (P43220 24-463): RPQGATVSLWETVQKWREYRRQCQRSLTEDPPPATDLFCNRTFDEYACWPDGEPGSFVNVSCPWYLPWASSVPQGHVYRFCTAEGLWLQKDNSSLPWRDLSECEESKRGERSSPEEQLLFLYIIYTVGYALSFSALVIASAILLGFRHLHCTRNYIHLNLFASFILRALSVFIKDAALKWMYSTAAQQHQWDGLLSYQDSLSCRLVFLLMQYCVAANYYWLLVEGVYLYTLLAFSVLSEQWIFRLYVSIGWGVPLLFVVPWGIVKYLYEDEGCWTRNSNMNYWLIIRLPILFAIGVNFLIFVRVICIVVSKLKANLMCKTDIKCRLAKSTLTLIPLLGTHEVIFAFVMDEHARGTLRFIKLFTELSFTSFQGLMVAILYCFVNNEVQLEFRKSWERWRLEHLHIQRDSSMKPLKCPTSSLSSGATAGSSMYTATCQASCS

With `CC[C@H](C)[C@H](NC(=O)[C@H](Cc1ccccc1)NC(=O)[C@H](CCCCNC(=O)COCCOCCNC(=O)COCCOCCNC(=O)CC[C@H](NC(=O)CCCCCCCCCCCCC(=O)O)C(=O)O)NC(=O)[C@H](CCCNC(=N)N)NC(=O)[C@H](C)NC(=O)[C@H](C)NC(=O)[C@H](CCC(N)=O)NC(=O)[C@H](CCC(=O)O)NC(=O)[C@H](CCC(=O)O)NC(=O)[C@H](CC(C)C)NC(=O)[C@H](Cc1ccc(O)cc1)NC(=O)[C@H](CO)NC(=O)[C@H](CO)NC(=O)[C@@H](NC(=O)[C@H](CC(=O)O)NC(=O)[C@H](CO)NC(=O)[C@@H](NC(=O)[C@H](CCCCNC(=O)COCCOCCNC(=O)COCCOCCNC(=O)CC[C@H](NC(=O)CCCCCCCCCCCCC(=O)O)C(=O)O)NC(=O)[C@@H](NC(=O)CNC(=O)[C@H](CCC(=O)O)NC(=O)C(C)(C)NC(=O)[C@@H](N)Cc1c[nH]cn1)[C@@H](C)O)[C@@H](C)O)C(C)C)C(=O)N[C@@H](C)C(=O)N[C@@H](Cc1c[nH]cn1)C(=O)N[C@@H](CC(C)C)C(=O)N[C@H](C(=O)N[C@@H](CCC(N)=O)C(=O)NCC(=O)N[C@@H](CCCNC(=N)N)C(=O)NCC(=O)O)C(C)C` [Example 18, N^ε12-[2-[2-[2-[[2-[2-[2-[[(4S)-4-carboxy-4-(13-carboxytridecanoylamino)butanoyl]amino]ethoxy]ethoxy]acetyl]amino]ethoxy]ethoxy]acetyl], N^ε27-[2-[2-[2-[[2-[2-[2-[[(4S)-4-carboxy-4-(13-carboxytridecanoylamino)butanoyl]amino]ethoxy]ethoxy]acetyl]amino]ethoxy]ethoxy]acetyl]-[Aib^8,Lys^12,Glu^22,Arg^26,Lys^27,His^31,Gln^34]-GLP-1-(7-37)-peptide] (H-H[Aib]EGTK([AEEA-AEEA-γGlu-C14 diacid])TSDVSSYLEEQAARK([AEEA-AEEA-γGlu-C14 diacid])FIAHLVQGRG-OH), in series [1], the half-life was 600 min. Also, at human GLP-1 receptor, the “Ratio [(IC50/nM) high HSA]/[(IC50/nM) low HSA]” value came to 2.1.

For `CC[C@H](C)[C@H](NC(=O)[C@H](Cc1ccccc1)NC(=O)[C@H](CCCCNC(=O)COCCOCCNC(=O)COCCOCCNC(=O)CC[C@H](NC(=O)CCCCCCCCCOc1ccc(C(=O)O)cc1)C(=O)O)NC(=O)[C@H](CCCNC(=N)N)NC(=O)[C@H](C)NC(=O)[C@H](C)NC(=O)[C@H](CCC(N)=O)NC(=O)[C@H](CCC(=O)O)NC(=O)[C@H](CCC(=O)O)NC(=O)[C@H](CC(C)C)NC(=O)[C@H](Cc1ccc(O)cc1)NC(=O)[C@H](CO)NC(=O)[C@H](CO)NC(=O)[C@@H](NC(=O)[C@H](CC(=O)O)NC(=O)[C@H](CO)NC(=O)[C@@H](NC(=O)[C@H](Cc1ccccc1)NC(=O)[C@@H](NC(=O)CNC(=O)[C@H](CCC(=O)O)NC(=O)C(C)(C)NC(=O)[C@@H](N)Cc1c[nH]cn1)[C@@H](C)O)[C@@H](C)O)C(C)C)C(=O)N[C@@H](CCC(=O)O)C(=O)N[C@@H](Cc1c[nH]c2ccccc12)C(=O)N[C@@H](CC(C)C)C(=O)N[C@H](C(=O)N[C@@H](CCCNC(=N)N)C(=O)NCC(=O)N[C@@H](CCCCNC(=O)COCCOCCNC(=O)COCCOCCNC(=O)CC[C@H](NC(=O)CCCCCCCCCOc1ccc(C(=O)O)cc1)C(=O)O)C(=O)NCC(=O)N[C@@H](CCC(=O)O)C(=O)NCC(=O)O)C(C)C` [Example 31, N^ε27-[2-[2-[2-[[2-[2-[2-[[(4S)-4-carboxy-4-[10-(4-carboxyphenoxy)decanoylamino]butanoyl]amino]ethoxy]ethoxy]acetyl]amino]ethoxy]ethoxy]acetyl], N^ε36-[2-[2-[2-[[2-[2-[2-[[(4S)-4-carboxy-4-[10-(4-carboxyphenoxy)decanoylamino]butanoyl]amino]ethoxy]ethoxy]acetyl]amino]ethoxy]ethoxy]acetyl]-[Aib^8,Glu^22,Arg^26,Lys^27,Glu^30,Arg^34,Lys^36]-GLP-1-(7-37)-peptidyl-Glu-Gly] (H-H[Aib]EGTFTSDVSSYLEEQAARK([AEEA-AEEA-γGlu-Decanoyl(10-(4-HOOC-PhO))])FIEWLVRGK([AEEA-AEEA-γGlu-Decanoyl(10-(4-HOOC-PhO))])GEG-OH; N-terminus and C-terminus assumed), the half-life in series [1] is 1140 min. At human GLP-1 receptor, the “Ratio [(IC50/nM) high HSA]/[(IC50/nM) low HSA]” value is given as 629.

Consider `CC[C@H](C)[C@H](NC(=O)[C@H](Cc1ccccc1)NC(=O)[C@H](CCCCNC(=O)COCCOCCNC(=O)COCCOCCNC(=O)CC[C@H](NC(=O)CCCCCCCCCOc1ccc(C(=O)O)cc1)C(=O)O)NC(=O)[C@H](Cc1c[nH]cn1)NC(=O)[C@H](C)NC(=O)[C@H](C)NC(=O)[C@H](CCC(N)=O)NC(=O)CNC(=O)[C@H](CCC(=O)O)NC(=O)[C@H](CC(C)C)NC(=O)[C@H](Cc1ccc(O)cc1)NC(=O)[C@H](CO)NC(=O)[C@H](CO)NC(=O)[C@@H](NC(=O)[C@H](CC(=O)O)NC(=O)[C@H](CO)NC(=O)[C@@H](NC(=O)[C@H](Cc1ccccc1)NC(=O)[C@@H](NC(=O)CNC(=O)[C@H](CCC(=O)O)NC(=O)[C@H](C)NC(=O)[C@@H](N)Cc1c[nH]cn1)[C@@H](C)O)[C@@H](C)O)C(C)C)C(=O)N[C@@H](CCC(=O)O)C(=O)N[C@@H](Cc1c[nH]c2ccccc12)C(=O)N[C@@H](CC(C)C)C(=O)N[C@H](C(=O)N[C@@H](CCCNC(=N)N)C(=O)NCC(=O)N[C@@H](CCCCNC(=O)COCCOCCNC(=O)COCCOCCNC(=O)CC[C@H](NC(=O)CCCCCCCCCOc1ccc(C(=O)O)cc1)C(=O)O)C(=O)NCC(=O)N[C@@H](CCC(=O)O)C(=O)O)C(C)C` [Example 10, N^ε27-[2-[2-[2-[[2-[2-[2-[[(4S)-4-carboxy-4-[10-(4-carboxyphenoxy)decanoylamino]butanoyl]amino]ethoxy]ethoxy]acetyl]amino]ethoxy]ethoxy]acetyl], N^ε36-[2-[2-[2-[[2-[2-[2-[[(4S)-4-carboxy-4-[10-(4-carboxyphenoxy)decanoylamino]butanoyl]amino]ethoxy]ethoxy]acetyl]amino]ethoxy]ethoxy]acetyl]-[His^26,Lys^27,Glu^30,Arg^34,Lys^36]-GLP-1-(7-37)-peptidyl-Glu] (H-HAEGTFTSDVSSYLEGQAAHK([AEEA-AEEA-γGlu-Decanoyl(10-(4-HOOC-PhO))])FIEWLVRGK([AEEA-AEEA-γGlu-Decanoyl(10-(4-HOOC-PhO))])GE-OH; N-terminus and C-terminus assumed), for which, in series [1], the half-life is 1380 min. In addition, the “Dose-corrected exposure at 30 min” value in series [2] is 187.

In the case of `CC[C@H](C)[C@H](NC(=O)[C@H](Cc1ccccc1)NC(=O)[C@H](CCCCNC(=O)COCCOCCNC(=O)COCCOCCNC(=O)CC[C@H](NC(=O)CCCCCCCCCCCCC(=O)O)C(=O)O)NC(=O)[C@H](CCCNC(=N)N)NC(=O)[C@@H](NC(=O)[C@H](C)NC(=O)[C@H](CCC(=O)O)NC(=O)[C@H](CCC(=O)O)NC(=O)[C@H](CCC(=O)O)NC(=O)[C@H](CC(C)C)NC(=O)[C@H](Cc1ccc(O)cc1)NC(=O)[C@H](CO)NC(=O)[C@H](CO)NC(=O)[C@@H](NC(=O)[C@H](CC(=O)O)NC(=O)[C@H](CO)NC(=O)[C@@H](NC(=O)[C@H](Cc1ccccc1)NC(=O)[C@@H](NC(=O)CNC(=O)[C@H](CCC(=O)O)NC(=O)[C@H](C)NC(=O)[C@@H](N)Cc1c[nH]cn1)[C@@H](C)O)[C@@H](C)O)C(C)C)C(C)C)C(=O)N[C@@H](C)C(=O)N[C@@H](Cc1c[nH]cn1)C(=O)N[C@@H](CC(C)C)C(=O)N[C@H](C(=O)N[C@@H](CCC(N)=O)C(=O)NCC(=O)N[C@@H](CCCNC(=N)N)C(=O)N[C@@H](CCCCNC(=O)COCCOCCNC(=O)COCCOCCNC(=O)CC[C@H](NC(=O)CCCCCCCCCCCCC(=O)O)C(=O)O)C(=O)O)C(C)C` [Example 17, N^ε27-[2-[2-[2-[[2-[2-[2-[[(4S)-4-carboxy-4-(13-carboxytridecanoylamino)butanoyl]amino]ethoxy]ethoxy]acetyl]amino]ethoxy]ethoxy]acetyl], N^ε37-[2-[2-[2-[[2-[2-[2-[[(4S)-4-carboxy-4-(13-carboxytridecanoylamino)butanoyl]amino]ethoxy]ethoxy]acetyl]amino]ethoxy]ethoxy]acetyl]-[Glu^22,Glu^23,Val^25,Arg^26,Lys^27,His^31,Gln^34,Lys^37]-GLP-1-(7-37)-peptide] (H-HAEGTFTSDVSSYLEEEAVRK([AEEA-AEEA-γGlu-C14 diacid])FIAHLVQGRK([AEEA-AEEA-γGlu-C14 diacid])-OH; N-terminus and C-terminus assumed), the half-life in series [1] is 600 min. Besides, in series [2], the “Dose-corrected exposure at 30 min” value is recorded as 168.
